In the assay the target is GPR40 (Homo sapiens, UniProt O14842). The experiment in a line: Cell-based aequorin assay (CHO cells stably expressing GPR40 and aequorin). The arrangement: expressed in transfected cells; host or cells: CHO cells stably transfected with GPR40 and aequorin. The settings on record: activation of human GPR40, CHO cells, 0.01% HSA. An outline of the steps:
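CHO cells stably co-expressing GPR40 and aequorin, loaded with coelenterazine (1 ug/mL, 2 h, room temperature) in H/HBSS with 20 mM Hepes and 0.01% fatty acid-free HSA. Serially diluted compounds added; luminescence recorded over 20 s. EC50 from dose-response of maximum relative light units.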
GPR40, sequence (O14842 whole entry): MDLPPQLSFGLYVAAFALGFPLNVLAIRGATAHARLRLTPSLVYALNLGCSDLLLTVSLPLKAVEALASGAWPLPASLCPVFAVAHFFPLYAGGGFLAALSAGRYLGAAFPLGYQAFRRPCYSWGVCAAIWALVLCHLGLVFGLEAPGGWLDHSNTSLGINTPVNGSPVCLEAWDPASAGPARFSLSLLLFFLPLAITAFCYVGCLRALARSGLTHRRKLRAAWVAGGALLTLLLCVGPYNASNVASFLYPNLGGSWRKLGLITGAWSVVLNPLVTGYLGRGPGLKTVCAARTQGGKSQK
`COc1ccc(F)c(-c2ccc(COc3cccc([C@@H](CC(=O)O)C4CC4)c3)cc2CN2CCCCC2)c1` (single isomer, unassigned) [Example 66.64, (3S)-3-Cyclopropyl-3-(3-(((2′-fluoro-5′-(methyloxy)-2-(1-piperidinylmethyl)-1,1′-biphenyl-4-yl)methyl)oxy)phenyl)propanoic acid or (3R)-3-cyclopropyl-3-(3-(((2′-fluoro-5′-(methyloxy)-2-(1-piperidinylmethyl)-1,1′-biphenyl-4-yl)methyl)oxy)phenyl)propanoic acid]: the EC50 (as a rule, the midpoint of the concentration-response curve) was in the range of 1000 to 10000 nM.

`COc1ccc(F)c(-c2ccc(COc3cccc([C@@H](CC(=O)O)C4CC4)c3)cc2CN2CCCC2)c1` (single isomer, unassigned) [Example 66.65, (3S)-3-Cyclopropyl-3-(3-(((2′-fluoro-5′-(methyloxy)-2-(1-pyrrolidinylmethyl)-1,1′-biphenyl-4-yl)methyl)oxy)phenyl)propanoic acid or (3R)-3-cyclopropyl-3-(3-(((2′-fluoro-5′-(methyloxy)-2-(1-pyrrolidinylmethyl)-1,1′-biphenyl-4-yl)methyl)oxy)phenyl)propanoic acid] came in with an EC50 of 1000 to 10000 nM.

As to `CC1(c2cccc(-c3ccc(COc4cccc(C(CC(=O)O)C5CC5)c4)cc3C3CCCC3(C)C)c2)OCCO1` (single isomer, unassigned) [Example 66.72, (S)-3-(3-((S)-3-((S)-2,2-Dimethylcyclopentyl)-4-(3-(2-methyl-1,3-dioxolan-2-yl)phenyl)benzyloxy)phenyl)-3-cyclopropylpropanoic acid or stereoisomer thereof], the EC50 fell in the range of 1000 to 10000 nM.

The molecule `COc1ccc(F)c(-c2ccc(COc3cccc(C(CC(=O)O)C4CC4)c3)cc2CN2CCCCCC2)c1` (single isomer, unassigned) [Example 66.73, (3S)-3-(3-(((2-(1-Azepanylmethyl)-2′-fluoro-5′-(methyloxy)-1,1′-biphenyl-4-yl)methyl)oxy)phenyl)-3-cyclopropylpropanoic acid or (3R)-3-(3-(((2-(1-azepanylmethyl)-2′-fluoro-5′-(methyloxy)-1,1′-biphenyl-4-yl)methyl)oxy)phenyl)-3-cyclopropylpropanoic acid] showed an EC50 of 1000 to 10000 nM.

Take `CC(=O)c1cccc(-c2ccc(COc3cccc([C@@H](CC(=O)O)C4CC4)c3)cc2[C@H]2CCCC2(C)C)c1` (single isomer, unassigned) [Example 66.74, (S)-3-(3-((S)-3-((S)-2,2-Dimethylcyclopentyl)-4-(3-acetylphenyl)benzyloxy)phenyl)-3-cyclopropylpropanoic acid or stereoisomer thereof]: the EC50 fell in the range of 1000 to 10000 nM.

`COc1ccc(F)c(-c2ccc(COc3cccc(C(CC(=O)O)C4CC4)c3)cc2CN2CCCC[C@@H]2C)c1` (single isomer, unassigned) [Example 66.75, (3S)-3-Cyclopropyl-3-(3-(((2′-fluoro-5′-(methyloxy)-2-(((2S)-2-methyl-1-piperidinyl)methyl)-1,1′-biphenyl-4-yl)methyl)oxy)phenyl)propanoic acid or (3R)-3-cyclopropyl-3-(3-(((2′-fluoro-5′-(methyloxy)-2-(((2S)-2-methyl-1-piperidinyl)methyl)-1,1′-biphenyl-4-yl)methyl)oxy)phenyl)propanoic acid] displayed an EC50 of 1000 to 10000 nM.

In the case of `CC(C)(O)c1cccc(-c2ccc(COc3cccc([C@@H](CC(=O)O)C4CC4)c3)cc2[C@H]2CCCC2(C)C)c1` (single isomer, unassigned) [Example 66.76, (S)-3-(3-((S)-3-((S)-2,2-dimethylcyclopentyl)-4-(3-(2-hydroxypropan-2-yl)phenyl)benzyloxy)phenyl)-3-cyclopropylpropanoic acid or stereoisomer thereof], the EC50 is 1000 to 10000 nM.

For the molecule `CCCCCOc1cc(COc2cccc(C(CCC)CC(=O)O)c2)ccc1-c1cc(OC)ccc1F` (single isomer, unassigned) [Example 67.1, (3R)-3-(3-(((2′-Fluoro-5′-(methyloxy)-2-(pentyloxy)-1,1′-biphenyl-4-yl)methyl)oxy)phenyl)hexanoic acid or (3S)-3-(3-(((2∝-fluoro-5′-(methyloxy)-2-(pentyloxy)-1,1′-biphenyl-4-yl)methyl)oxy)phenyl)hexanoic acid], the EC50 lay in the range of 100 to 1000 nM.

In the case of `CCCC(CC(=O)O)c1cccc(OCc2ccc(-c3cc(OC)ccc3F)c(C(C)(C)C)c2F)c1` (single isomer, unassigned) [Example 67.3, (3R)-3-(3-(((2-(1,1-Dimethylethyl)-2′,3-difluoro-5′-(methyloxy)-1,1′-biphenyl-4-yl)methyl)oxy)phenyl)hexanoic acid or (3S)-3-(3-(((2-(1,1-dimethylethyl)-2′,3-difluoro-5′-(methyloxy)-1,1′-biphenyl-4-yl)methyl)oxy)phenyl)hexanoic acid], the EC50 is 100 to 1000 nM.

For `CCCC(CC(=O)O)c1cccc(OCc2ccc(-c3cc(OC)ccc3F)c(/C=C/C(C)(C)C)c2)c1` (single isomer, unassigned) [Example 67.4, (3R)-3-(3-(((2-((1E)-3,3-Dimethyl-1-butenyl)-2′-fluoro-5′-(methyloxy)-1,1′-biphenyl-4-yl)methyl)oxy)phenyl)hexanoic acid or (3S)-3-(3-(((2-((1E)-3,3-dimethyl-1-butenyl)-2′-fluoro-5′-(methyloxy)-1,1′-biphenyl-4-yl)methyl)oxy)phenyl)hexanoic acid], the EC50 fell in the range of 100 to 1000 nM.

`CCCC(CC(=O)O)c1cccc(OCc2ccc(-c3cc(OC)ccc3F)c(C3=CCC(C)(C)CC3)c2)c1` (single isomer, unassigned) [Example 67.5, (3R)-3-(3-(((2-(4,4-Dimethyl-1-cyclohexen-1-yl)-2′-fluoro-5′-(methyloxy)-1,1′-biphenyl-4-yl)methyl)oxy)phenyl)hexanoic acid or (3S)-3-(3-(((2-(4,4-dimethyl-1-cyclohexen-1-yl)-2′-fluoro-5′-(methyloxy)-1,1′-biphenyl-4-yl)methyl)oxy)phenyl)hexanoic acid] displayed a concentration giving a half-maximal response (EC50) of 100 to 1000 nM.

Consider `CCCC(CC(=O)O)c1cccc(OCc2ccc(-c3cc(OC)ccc3F)c(/C=C/C3CC3)c2)c1` (single isomer, unassigned) [Example 67.9, (3R)-3-(3-(((2-((E)-2-Cyclopropylethenyl)-2′-fluoro-5′-(methyloxy)-1,1′-biphenyl-4-yl)methyl)oxy)phenyl)hexanoic acid or (3S)-3-(3-(((2-((E)-2-cyclopropylethenyl)-2′-fluoro-5′-(methyloxy)-1,1′-biphenyl-4-yl)methyl)oxy)phenyl)hexanoic acid], for which the EC50 was 1000 to 10000 nM.

`CCCC(CC(=O)O)c1cccc(OCc2ccc(-c3cc(OC)ccc3F)c(C3CCCC3)c2)c1` (single isomer, unassigned) [Example 67.10, (3R)-3-(3-(((2-Cyclopentyl-2′-fluoro-5′-(methyloxy)-1,1′-biphenyl-4-yl)methyl)oxy)p acid or (3S)-3-(3-(((2-cyclopentyl-2′-fluoro-5′-(methyloxy)-1,1′-biphenyl-4-yl)methyl)oxy)phenyl)hexanoic acid] came in with an EC50 of 100 to 1000 nM.

In the case of `CCCCOc1cc(COc2cccc(C(CCC)CC(=O)O)c2)ccc1-c1cccc(OC)c1` (single isomer, unassigned) [Example 67.13, (3R)-3-(3-(((2-(Butyloxy)-3′-(methyloxy)-1,1′-biphenyl-4-yl)methyl)oxy)phenyl)hexanoic acid or (3S)-3-(3-(((2-(butyloxy)-3′-(methyloxy)-1,1′-biphenyl-4-yl)methyl)oxy)phenyl)hexanoic acid], the EC50 was in the range of 100 to 1000 nM.

Take `CCC[C@H](CC(=O)O)c1cccc(OCc2ccc(-c3cc(OC)ccc3F)c(OC3CCCCO3)c2)c1` (single isomer, unassigned) [Example 67.14, (3R)-3-(3-(((2′-Fluoro-5′-(methyloxy)-2-(tetrahydro-2H-pyran-2-yloxy)-1,1′-biphenyl-4-yl)methyl)oxy)phenyl)hexanoic acid or (3S)-3-(3-(((2′-fluoro-5′-(methyloxy)-2-(tetrahydro-2H-pyran-2-yloxy)-1,1′-biphenyl-4-yl)methyl)oxy)phenyl)hexanoic acid]: the EC50 was in the range of 100 to 1000 nM.

As for `CCCCCCOc1cc(COc2cccc([C@H](CCC)CC(=O)O)c2)ccc1-c1cc(OC)ccc1F` (single isomer, unassigned) [Example 67.15, (3R)-3-(3-(((2′-Fluoro-2-(hexyloxy)-5′-(methyloxy)-1,1′-biphenyl-4-yl)methyl)oxy)phenyl)hexanoic acid or (3S)-3-(3-(((2′-fluoro-2-(hexyloxy)-5′-(methyloxy)-1,1′-biphenyl-4-yl)methyl)oxy)phenyl)hexanoic acid], the EC50 was 100 to 1000 nM.

With `CCCC(CC(=O)O)c1cccc(OCc2ccc(-c3cc(OC)ccc3F)c(OCCCC(C)C)c2)c1` (single isomer, unassigned) [Example 67.16, (3R)-3-(3-(((2′-Fluoro-5′-(methyloxy)-2-((4-methylpentyl)oxy)-1,1′-biphenyl-4-yl)methyl)oxy)phenyl)hexanoic acid or (3S)-3-(3-(((2′-fluoro-5′-(methyloxy)-2-((4-methylpentyl)oxy)-1,1′-biphenyl-4-yl)methyl)oxy)phenyl)hexanoic acid], the EC50 was 100 to 1000 nM.

The molecule `CCCC(CC(=O)O)c1cccc(OCc2ccc(-c3cc(OC)ccc3F)c(OCC3CCCCC3)c2)c1` (single isomer, unassigned) [Example 67.17, (3R)-3-(3-(((2-((Cyclohexylmethyl)oxy)-2′-fluoro-5′-(methyloxy)-1,1′-biphenyl-4-yl)methyl)oxy)phenyl)hexanoic acid or (3S)-3-(3-(((2-((cyclohexylmethyl)oxy)-2′-fluoro-5′-(methyloxy)-1,1′-biphenyl-4-yl)methyl)oxy)phenyl)hexanoic acid] gave an EC50 of 100 to 1000 nM.

The values are drawn from patent US8030354B2, “Substituted biphenyl GPR40 modulators” (Amgen Inc., priority 2007, dated 2011).
